Usually MIC stands for the lowest concentration that inhibits growth of the organism. Broadly, the solubility (thermodynamic) is solubility found after equilibrating the solid with the medium.

These results are taken from PMC12455637, “Functionalizing Nisin with a Sugar Moiety Improves Its Solubility and Results in an Altered Antibacterial Spectrum and Mode of Action” (ACS Synthetic Biology, 2025).

The test system of data set [1] is Enterococcus faecium LMG16003 (VRE). It counts as cell-based. Conditions: broth microdilution, inoculum ~5 × 10^5 CFU/mL, overnight 37 °C, HPLC-purified peptides. The protocol: (§1) The minimal inhibitory concentration (MIC) values were assessed through broth microdilution following standard guidelines. The inoculum was adjusted to around 5 × 10^5 CFU/mL. MIC was characterized as the lowest concentration of the antimicrobial substance at which no visible growth was observed following overnight incubation at 37 °C.
On the technique in general: Dilution methods test growth across graded concentrations, often in twofold steps.

Data set [2] concerns Staphylococcus aureus LMG15975 (MRSA). Type of data set: cell-based. The following applies: broth microdilution, inoculum ~5 × 10^5 CFU/mL, overnight 37 °C, HPLC-purified peptides. The protocol: as §1
Data set [3] has as its system E. faecium. It counts as cell-based, Enterococcus faecium. The following applies: agar well diffusion, 30 μL of 1 mg/mL. The procedure:
2 Production of single-Met containing nisin and nisin variants labeled with Met, Hpg or Hpg–Glc and their antibacterial activity against E. faecium strain. (a) Quantification of fully modified nisin variants labeled with Met or Hpg using HPLC as per Schmitt et al. (b) Evaluation of the antimicrobial efficacy of nisin and its variants against E. faecium through agar well diffusion assay. Each trial was repeated 3 times. The relative activity was determined by measuring inhibition zone diameters in millimeters, calculated as the area of the zone (πr ^2) minus the area of the well (πr ^2) in millimeters.
(§2) An overnight culture was added at a concentration of 0.1% (v/v) to molten GM17 agar (for E. faecium and E. faecalis) or LB agar (for S. aureus and B. cereus) at 45 °C, and then 30 mL of this mixture was poured onto a plate. After the agar solidified, wells of 8 mm were created by punching in the agar and filled with 30 μL of a 1 mg/mL lantibiotic solution. If needed, lantibiotics were activated by adding 3 μL of 1 mg/mL NisP directly to the well. The quantity of nisin was determined using HPLC as previously outlined. The agar plate was then incubated at 37 °C overnight, and the zones of inhibition were measured. The presented data results from three independent experiments. Zone diameters were measured in millimeters and recorded as the area of the zone (πr ^2) minus the area of the well (πr ^2) in millimeters.

Another data set deals with S. aureus. The experiment in a line: Agar well diffusion assay. Conditions: HPLC-purified peptides. It counts as cell-based, Staphylococcus aureus. The procedure:
as §2
(In general: In agar diffusion tests the substance spreads into inoculated agar from a disc or well.)

The subject of the next data set is B. cereus. Briefly: Agar well diffusion assay. It counts as cell-based, Bacillus cereus. Conditions: HPLC-purified peptides. The procedure:
as §2

Another data set deals with Enterococcus faecalis. Briefly: Agar well diffusion assay. Type of data set: cell-based. The following applies: HPLC-purified peptides. The procedure:
as §2

Another data set can be described thus: Solubility at neutral pH. Type of data set: physicochemical. The protocol:
Highest solubility at pH 7 was obtained for nisin Z mutant M31K (7–8 mg/mL). The covalent modification of a therapeutic peptide or protein with sugar units is an established strategy to enhance drug solubility and bioavailability. The N-terminal segment of nisin contains a relatively high proportion of hydrophobic residues, while the C-terminal portion is more hydrophilic, featuring positively charged lysine and histidine side chains (Figure e). Attaching a hydrophilic sugar moiety to the C-terminal region of nisin therefore may not substantially alter its amphiphilic nature. To assess the solubility of nisin and its new variants at neutral pH, wild-type nisin or nisin(M21V)–Gal were added to a 50 mM PBS buffer solution (pH 7.2) at room temperature until precipitation occurred (Figure S7a). After equilibration, the concentration of dissolved nisin in the saturated solution was determined using high-performance liquid chromatography (HPLC).
Wild-type nisin (product code: 0305, Handary, Belgium) or nisin(M21V)–Gal was added to a 50 mM PBS buffer solution until precipitation occurred. Equilibrium was established by continuous shaking for 30 min, followed by centrifugation for 3 min at 15,000g. The concentration of the saturated nisin solution was determined using HPLC. […]

In another data set the test system is lipid II. The experiment in a line: Spot-on-lawn assay of peptide-lipid II complex formation. Type of data set: cell-based, Enterococcus faecium. Conditions: lipid II 300 μM, 2 μL spotted at edge of inhibition zone, E. faecium lawn, overnight 37 °C. The procedure:
To assess the interaction between the peptide and lipid II, an overnight culture of E. faecium was added to 0.8% GM17 (w/v) at 45 °C with a final concentration of 0.1% (v/v), and the mixture was then poured into 10 mL plates. The binding of the peptide to lipid II was further examined by spotting purified lipid II (300 μM, 2 μL) at the periphery of the antibiotic inhibition zone. In brief, antimicrobials were applied to the agar plate. Once the antimicrobial solution drops had dried, lipid II was spotted at the edge of the inhibition zone. After the drops had dried, the plates were incubated overnight at 37 °C.

Data set [4] concerns E. faecium. The experiment in a line: Time-kill assay. Type of data set: cell-based, Enterococcus faecium. The procedure:
The antimicrobial effectiveness of nisin, nisin(1–22), and nisin(M21V)–Gal was assessed using a method previously described by Guo et al. , In summary, an overnight culture of E. faecium was diluted 50 times in GM17 medium and cultured at 37 °C. The bacteria were grown until reaching an optical density at 600 nm (OD600) of 0.5, and then the cell concentration was adjusted to 5 × 10^5 colony-forming units per milliliter (CFU/mL). Following this, the bacteria were exposed to a 5-fold MIC of each peptide. An untreated cell suspension was used as a control. At specific time intervals, 50 μL samples were taken, and both undiluted and 10-fold serially diluted suspensions were plated on GM17 agar. The plates were then incubated overnight at 37 °C, and the resulting colonies were counted and expressed as CFU/mL. Each experiment was conducted in triplicate.

Data set [5] concerns E. faecium. The experiment in a line: Potassium ion efflux assay (PBFI probe). The following applies: various peptide concentrations, up to 32 times MIC; 10 mM HEPES pH 7.2, 0.5% glucose, 10 μM PBFI. Type of data set: cell-based, Enterococcus faecium. The procedure: To conduct the K^+ release assay, the K^+-specific fluorescent probe PBFI was utilized. E. faecium was cultured in GM17 medium until it reached an OD600 of 0.6, at which point the cells were harvested (5000g, 5 min) and washed twice with 10 mM HEPES (pH 7.2) containing 0.5% glucose. The cells were then suspended in the same buffer supplemented with 10 μM PBFI. Data analysis was carried out using a Varioskan LUX Multimode Microplate Reader (Thermo Fisher Scientific), with cell excitation at 346 nm and fluorescence emission measurement at 505 nm to establish a baseline signal before the introduction of varying concentrations of antibiotics. Nisin was utilized as the positive control in this study.

A further data set has as its system E. faecium cells. Briefly: Membrane potential, DiSC3(5) probe. Type of data set: cell-based, Enterococcus faecium. Conditions: different concentrations, 2 μM DiSC3(5), monitored 25 min, three replicates. The procedure:
To assess the membrane potential, the membrane potential-sensitive fluorescent dye DiSC3(5) was employed. E. faecium was grown to an OD600 of 0.8, then centrifuged at 5000g for 5 min and washed twice in 10 mM HEPES with 10 mM glucose (pH 7.2). The cell density was adjusted to an OD600 of 0.2 and loaded with 2 μM DiSC3(5) dye, followed by a 20 min incubation in darkness to stabilize the probe fluorescence. Subsequently, the cell suspension was transferred to a 96-well microplate and incubated for 5 min with 100 mM KCl. Antibiotics were then introduced at a varied concentration, and the fluorescence was monitored for 25 min. The excitation and emission wavelengths on the fluorescence spectrometer were set to 622 and 670 nm, respectively. Three replicates were conducted, and a representative example is presented.

Data set [6] concerns Staphylococcus epidermidis. Conditions: ref citation number not printed (Twomey et al. by title); cited from earlier work. The source says:
Recently, we introduced the Met analog Aha at position 17 and used click chemistry to ...

Converted amounts (≈) assume the structure as drawn. Ends that are not written are not given here.

Consider `C=C(NC(=O)[C@@H](NC(=O)[C@H](Cc1c[nH]cn1)NC(=O)[C@@H](NC(=O)[C@H](CO)NC(=O)[C@@H]1CS[C@@H](C)[C@H]2NC(=O)[C@H](C)NC(=O)[C@H](NC(=O)[C@H](CCCCN)NC(=O)[C@@H](NC(=O)[C@H](CC(N)=O)NC(=O)[C@@H]3CS[C@@H](C)[C@@H](NC(=O)[C@H](CCCCN)NC(=O)[C@@H]4CS[C@@H](C)[C@@H](NC(=O)[C@@H]5CSC[C@@H](NC(=O)/C(=C/C)NC(=O)[C@@H](N)[C@@H](C)CC)C(=O)N[C@@H]([C@@H](C)CC)C(=O)NC(=C)C(=O)N[C@@H](CC(C)C)C(=O)N5)C(=O)N5CCC[C@H]5C(=O)NCC(=O)N4)C(=O)NCC(=O)N[C@@H](C)C(=O)N[C@@H](CC(C)C)C(=O)N[C@@H](CCc4cn(C[C@H]5OC(O)[C@H](O)[C@@H](O)[C@H]5O)nn4)C(=O)NCC(=O)N3)C(C)C)[C@H](C)SC[C@H](NC2=O)C(=O)N[C@@H](Cc2c[nH]cn2)C(=O)N1)[C@@H](C)CC)C(C)C)C(=O)N[C@@H](CCCCN)C(=O)O` (some centres unmarked) [nisin(M21V)–Gal], for which the MIC stood at 3.8 µg/mL (≈ 1.08 µM) in data set [1] and 15.19 µg/mL (≈ 4.33 µM) in [2]. Further, the “antibacterial activity in words” value in the data set on E. faecium [3] is on record as “retained high potency”. Also, the “activity compared to wild-type nisin or Hpg-labeled nisin(M21V)” value in the data set on S. aureus is recorded as “reduced activity”; in the data set with B. cereus, “reduced activity”; in the data set with Enterococcus faecalis it was “significantly lower activity”. For the same compound, the solubility (thermodynamic) at 30 min in the data set “Solubility at neutral pH” (aqueous buffer, thermodynamic from solid, thermodynamic, solid added until precipitation, 50 mM PBS pH 7.2, room temperature, shaking 30 min, centrifugation 3 min 15,000g, HPLC at 226 nm against nisin standard curve, repeated 3 times) worked out at 8600 µg/mL (≈ 2450 µM). Further, in “Solubility at neutral pH” (neutral pH, 50 mM PBS pH 7.2, room temperature), the “solubility, times higher compared to wild-type nisin” value came to 3.9 times. The “effect of externally added purified lipid II on antimicrobial activity / lipid II binding” value in the data set on lipid II was “maintained its capacity to bind to lipid II”. Moreover, the “bacteriostatic or bactericidal nature” value in the data set on E. faecium [4] (5-fold MIC against E. faecium) is reported as “bactericidal activity”. In addition, the “reduction in bacterial population” value with E. faecium [4] (5-fold MIC, after 3 h of incubation, start 5 × 10^5 CFU/mL, triplicate) is reported as “thousand-fold”. For the same compound, the “potassium ion release (PBFI fluorescence)” value in the data set with E. faecium [5] was “did not demonstrate this effect”. For the same compound, the “membrane depolarization (DiSC3(5) fluorescence)” value with E. faecium cells is given as “lost the ability to induce membrane depolarization”.
For the compound “M17Q: literature nisin mutant with M17Q mutation (ITSISLCTPGCKTGALQGCNMKTATCHCSIHVSK; cysteine pairing not given here; also: lantibiotic nisin-A; UniProt P13068 24-57, looked up, variant M17Q)”, the “influence of M17 mutation on antimicrobial activity” value in [6] is reported as “enhanced effectiveness”.
